ChEMBL document CHEMBL1201862, “PubChem BioAssay data set” (2004)
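Five compound concentrations were applied to cells in 96-well plates for 48 hours; endpoints were derived by simple linear interpolation of the resulting dose-response curve. Abbreviation: GI50, concentration required for 50% inhibition of growth.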 Calls of active or inactive are those of the source. Cut-off read from the data, not from the text of the source: active = GI50 up to about 1.1 µM and inactive = higher.

What was measured:
Experiment in all cases: NCI-60 cell line screen, 48 h
ACHN = test system: ACHN
CAKI-1 = test system: CAKI-1
RPMI-8226 = test system: RPMI-8226
UACC-62 = test system: UACC-62
HT-29 = test system: HT-29
MDA-N = test system: MDA-N
OVCAR-4 = test system: OVCAR-4
M14 = test system: M14
SF-539 = test system: SF-539
NCI/ADR-RES = test system: NCI/ADR-RES
A549 = test system: A549
OVCAR-8 = test system: OVCAR-8
SNB-75 = test system: SNB-75
UO-31 = test system: UO-31
NCI-H226 = test system: NCI-H226
NCI-H460 = test system: NCI-H460
HCC 2998 = test system: HCC 2998
MOLT-4 = test system: MOLT-4
SW-620 = test system: SW-620
TK-10 = test system: TK-10

CC1(C)COC2=C(C1)C(=O)c1ccccc1C2=O
GI50 (ACHN): 1.55 µM (inactive)
GI50 (CAKI-1): 2.23 µM (inactive)
GI50 (RPMI-8226): 1.32 µM (inactive)
GI50 (UACC-62): 1.09 µM (active)
GI50 (HT-29): 2.53 µM (inactive)
GI50 (MDA-N): 0.182 µM (active)
GI50 (OVCAR-4): 1.53 µM (inactive)
GI50 (M14): 1.61 µM (inactive)
GI50 (SF-539): 1.54 µM (inactive)
GI50 (NCI/ADR-RES): 0.452 µM (active)
GI50 (A549): 2.26 µM (inactive)
GI50 (OVCAR-8): 0.493 µM (active)
GI50 (SNB-75): 1.63 µM (inactive)
GI50 (UO-31): 1.04 µM (active)
GI50 (NCI-H226): 2.24 µM (inactive)
GI50 (NCI-H460): 1.91 µM (inactive)
GI50 (HCC 2998): 1.7 µM (inactive)
GI50 (MOLT-4): 1.5 µM (inactive)
GI50 (SW-620): 1.69 µM (inactive)
GI50 (TK-10): 1.7 µM (inactive)

COC(=O)C(CC(C)C)NC(=O)C(NC(=O)c1ccc(-c2ccc(Cl)cc2Cl)o1)C(C)C (stereo not given)
GI50 (ACHN): 20.8 µM (inactive)
GI50 (CAKI-1): 15.7 µM (inactive)
GI50 (RPMI-8226): 11.6 µM (inactive)
GI50 (UACC-62): 13.1 µM (inactive)
GI50 (HT-29): 15.3 µM (inactive)
GI50 (MDA-N): 20.2 µM (inactive)
GI50 (OVCAR-4): 24.9 µM (inactive)
GI50 (M14): 24 µM (inactive)
GI50 (SF-539): 29.2 µM (inactive)
GI50 (NCI/ADR-RES): 18.7 µM (inactive)
GI50 (A549): 21 µM (inactive)
GI50 (OVCAR-8): 28.2 µM (inactive)
GI50 (SNB-75): 23.9 µM (inactive)
GI50 (UO-31): 29 µM (inactive)
GI50 (NCI-H226): 32.4 µM (inactive)
GI50 (NCI-H460): 14.9 µM (inactive)
GI50 (HCC 2998): 17.3 µM (inactive)
GI50 (MOLT-4): 12.9 µM (inactive)
GI50 (SW-620): 28.8 µM (inactive)
GI50 (TK-10): 27.4 µM (inactive)

COc1ccc(CCN2COc3ccc4ccc(=O)oc4c3C2)cc1OC
GI50 (ACHN): > 100 µM (inactive)
GI50 (CAKI-1): > 100 µM (inactive)
GI50 (RPMI-8226): 22.4 µM (inactive)
GI50 (UACC-62): 50.2 µM (inactive)
GI50 (HT-29): 78.5 µM (inactive)
GI50 (MDA-N): > 100 µM (inactive)
GI50 (OVCAR-4): > 100 µM (inactive)
GI50 (M14): > 100 µM (inactive)
GI50 (SF-539): > 100 µM (inactive)
GI50 (NCI/ADR-RES): > 100 µM (inactive)
GI50 (A549): > 100 µM (inactive)
GI50 (OVCAR-8): > 100 µM (inactive)
GI50 (SNB-75): > 100 µM (inactive)
GI50 (UO-31): > 100 µM (inactive)
GI50 (NCI-H226): > 100 µM (inactive)
GI50 (NCI-H460): 66.8 µM (inactive)
GI50 (HCC 2998): > 100 µM (inactive)
GI50 (MOLT-4): > 100 µM (inactive)
GI50 (SW-620): 24.2 µM (inactive)
GI50 (TK-10): > 100 µM (inactive)

C=C1C(C)C2C(Cc3ccccc3)NC(=O)C23C(OC(C)=O)/C=C/C(C)(O)CC(C)C/C=C/C3C1O (stereo not given)
GI50 (ACHN): 0.492 µM (active)
GI50 (CAKI-1): 0.0288 µM (active)
GI50 (RPMI-8226): 9.42 µM (inactive)
GI50 (UACC-62): 18.2 µM (inactive)
GI50 (HT-29): 0.138 µM (active)
GI50 (MDA-N): > 100 µM (inactive)
GI50 (OVCAR-4): 0.904 µM (active)
GI50 (M14): 99.1 µM (inactive)
GI50 (SF-539): 0.0836 µM (active)
GI50 (NCI/ADR-RES): 57 µM (inactive)
GI50 (A549): 0.603 µM (active)
GI50 (OVCAR-8): 54.6 µM (inactive)
GI50 (SNB-75): 0.014 µM (active)
GI50 (UO-31): 0.0618 µM (active)
GI50 (NCI-H226): 0.728 µM (active)
GI50 (NCI-H460): 0.29 µM (active)
GI50 (HCC 2998): 16.1 µM (inactive)
GI50 (MOLT-4): 5.15 µM (inactive)
GI50 (SW-620): 90.6 µM (inactive)
GI50 (TK-10): 60.1 µM (inactive)

CC1C2Cc3ccc(O)cc3C1(C)CCN2C (stereo not given)
GI50 (ACHN): > 100 µM (inactive)
GI50 (CAKI-1): > 100 µM (inactive)
GI50 (RPMI-8226): > 100 µM (inactive)
GI50 (UACC-62): > 100 µM (inactive)
GI50 (HT-29): > 100 µM (inactive)
GI50 (MDA-N): > 100 µM (inactive)
GI50 (OVCAR-4): > 100 µM (inactive)
GI50 (M14): > 100 µM (inactive)
GI50 (SF-539): > 100 µM (inactive)
GI50 (NCI/ADR-RES): > 100 µM (inactive)
GI50 (A549): > 100 µM (inactive)
GI50 (OVCAR-8): > 100 µM (inactive)
GI50 (SNB-75): 86.7 µM (inactive)
GI50 (UO-31): > 100 µM (inactive)
GI50 (NCI-H226): > 100 µM (inactive)
GI50 (NCI-H460): > 100 µM (inactive)
GI50 (HCC 2998): > 100 µM (inactive)
GI50 (MOLT-4): > 100 µM (inactive)
GI50 (SW-620): > 100 µM (inactive)
GI50 (TK-10): > 100 µM (inactive)

CC1=C/C(=C(/c2ccc(O)c(C)c2)c2ccccc2C(=O)O)C=CC1=O
GI50 (ACHN): 18.3 µM (inactive)
GI50 (CAKI-1): 17.6 µM (inactive)
GI50 (RPMI-8226): 20 µM (inactive)
GI50 (UACC-62): 17.2 µM (inactive)
GI50 (HT-29): 21.9 µM (inactive)
GI50 (MDA-N): 18.7 µM (inactive)
GI50 (OVCAR-4): 18.1 µM (inactive)
GI50 (M14): 18.3 µM (inactive)
GI50 (SF-539): 19 µM (inactive)
GI50 (NCI/ADR-RES): 31 µM (inactive)
GI50 (A549): 19.5 µM (inactive)
GI50 (OVCAR-8): 20 µM (inactive)
GI50 (SNB-75): 18.5 µM (inactive)
GI50 (UO-31): 18.8 µM (inactive)
GI50 (NCI-H226): 23.1 µM (inactive)
GI50 (NCI-H460): 31.5 µM (inactive)
GI50 (HCC 2998): 19.1 µM (inactive)
GI50 (MOLT-4): 21.9 µM (inactive)
GI50 (SW-620): 19 µM (inactive)
GI50 (TK-10): 17.3 µM (inactive)
